US20250270222A1, “AP2 ASSOCIATED KINASE 1 INHIBITORS AND USES THEREOF” (Satellos Bioscience Inc., priority 2023, published 2025)

Columns and labels:
Format in all cases: biochemical
[1] = biological target: BIKE (amino acids S38-E345) (K320A, K321A) (Homo sapiens (Human), UniProt Q9NSY1, K320A/K321A); test: BIKE pSENs assay
Protocol: (§1) The recombinant proteins were independently expressed in Esherichia coli BL21(DE3) cells cultured in Luria-Bertani (LB) medium until OD600 reached 0.6-0.8, then cooled to 15° C., and supplemented with 0.5 mM isopropyl 1-thio-D-galactopyranoside (IPTG) induce protein expression 16 h. Cells were harvested and resuspended in lysis buffer (50 mM HEPES pH 7.5, 500 mM NaCl, 5 mM imidazole, 5% glycerol, 0.5 mM Tris (2-carboxyethyl) phosphine (TCEP), cOmplete Protease Inhibitor Tablet (Roche)) and lysed by microfluidics high pressure homogenizer (UH-06, Union-Biotech). Proteins were purified using Ni-Affinity chromatography (His FF column, Bestchrom) and eluted stepwise in binding buffer with 20-300 mM imidazole. Removal of the hexahistidine tag was performed at 4° C. overnight using recombinant TEV protease and reacted with BirA to obtain the corresponding biotinylated-AAK1. BIKE or GAK proteins. Further separated in the reverse Strep column (Strep-Tactin® XT, IBA). The Biotin elution sample was collected containing untagged biotinylated protein was then purified by Ion-exchange chromatography (Mono Q 10/100 GL, Cytiva) and Size-exclusion chromatography (HiLoad 16/600 Superdex 200 pg, Cytiva). The pure protein was stored in a storage buffer 50 mM HEPES (pH 7.5), 300 mM NaCl, 5% glycerol at −80° C. Protein were characterized by SDS-PAGE. LC-MS and aSEC.
BIKE protein was dissolved at 20 nM in 1× enzyme solution (50 mM HEPES pH7.5, 10 mM MgCl2, 1 mM DTT, 1% glycerol, 0.5 mM EGTA, 0.01% Briji35, 0.02% BSA) and 12.5 ul was incubated with 250 nl DMSO or 250 nl compound in DMSO at 25° C. for 15 min. The reaction was started by addition of 12.5 ul of 30 uM AQT0759 (Assayquant, CSKS-AQT0759B) and 40 uM ATP which were diluted in 1× substrate dilution buffer (50 mM HEPES pH7.5, 10 mM MgCl2. 1 mM DTT, 1% glycerol, 0.5 mM EGTA, 0.01% Briji35).

[2] = biological target: AAK1 (amino acids T27-A365) (Homo sapiens (Human), UniProt Q2M2I8); test: AAK1 pSENs assay; details: ratio of AAK1 pSENs activity to GAK pSENs activity
AAK1 (amino acids T27-A365), sequence (Q2M2I8 27-365): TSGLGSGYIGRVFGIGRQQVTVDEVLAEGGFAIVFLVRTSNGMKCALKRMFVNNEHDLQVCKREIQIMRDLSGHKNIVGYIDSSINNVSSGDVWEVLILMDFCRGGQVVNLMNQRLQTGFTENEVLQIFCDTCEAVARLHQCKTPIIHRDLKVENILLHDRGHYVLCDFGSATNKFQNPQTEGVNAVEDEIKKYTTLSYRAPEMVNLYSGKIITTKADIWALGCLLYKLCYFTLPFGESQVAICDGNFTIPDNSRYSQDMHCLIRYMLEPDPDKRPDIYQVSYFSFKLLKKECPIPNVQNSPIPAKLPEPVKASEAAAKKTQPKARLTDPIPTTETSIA
Method in brief: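 Untagged, biotinylated E. coli-expressed AAK1 at 20 nM preincubated with compound 15 min at 25° C in HEPES pH 7.5 buffer with 10 mM MgCl2 and 1 mM DTT. Reaction started with AQT0759 and ATP, added as 30 uM and 70 uM solutions in equal volume.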

[3] = biological target: GAK (amino acids Q25-N335) (Homo sapiens (Human), UniProt O14976); test: GAK pSENs assay
GAK (amino acids Q25-N335), sequence (O14976 25-335): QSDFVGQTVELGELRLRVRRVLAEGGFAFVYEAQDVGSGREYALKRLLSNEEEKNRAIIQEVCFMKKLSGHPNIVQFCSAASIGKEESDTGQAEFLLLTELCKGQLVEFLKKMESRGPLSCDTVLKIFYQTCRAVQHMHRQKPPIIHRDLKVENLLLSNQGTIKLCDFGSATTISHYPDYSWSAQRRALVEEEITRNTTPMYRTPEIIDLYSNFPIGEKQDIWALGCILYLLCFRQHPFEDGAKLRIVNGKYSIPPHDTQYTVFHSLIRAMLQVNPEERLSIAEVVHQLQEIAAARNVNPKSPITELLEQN
Protocol: as §1
This example describes one illustrative method for determining the IC50 of the compounds of the present invention against GAK (amino acids Q25-N335).

BIKE (amino acids S38-E345) (K320A, K321A), sequence (Q9NSY1 38-345 K320A/K321A): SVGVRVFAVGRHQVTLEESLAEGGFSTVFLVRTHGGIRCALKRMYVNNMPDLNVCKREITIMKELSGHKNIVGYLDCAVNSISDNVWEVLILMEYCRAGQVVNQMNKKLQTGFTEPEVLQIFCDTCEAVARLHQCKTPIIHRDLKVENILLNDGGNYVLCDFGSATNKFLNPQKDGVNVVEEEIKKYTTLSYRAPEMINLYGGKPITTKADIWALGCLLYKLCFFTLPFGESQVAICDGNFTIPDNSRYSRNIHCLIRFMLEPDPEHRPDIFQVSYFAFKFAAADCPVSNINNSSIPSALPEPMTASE

Structure (SMILES)	IC50 [1]	AAK1:GAK pSENs Selectivity [2]	IC50 [3]
O=C1C[C@H](OC(=O)N2CCN(c3ccn4ncc(-c5cccnc5NC5CNC5)c4n3)CC2)CN1 [Compound I-49, (S)-5-oxopyrrolidin-3-yl 4-(3-(2-(azetidin-3-ylamino)pyridin-3-yl)pyrazolo[1,5a]pyrimidin-5-yl)piperazine-1-carboxylate]	> 1500 nM	–	–
CC1(OC(=O)N2CCN(c3ccn4ncc(-c5cccnc5OCC5COC5)c4n3)CC2)COC1 [Compound I-20]	> 1500 nM	D (D: 0.16-1.00)	–
C[C@@]1(OC(=O)N[C@H]2CCN(c3ccn4ncc(-c5cccnc5OC5CC5)c4n3)C2)CCNC1 [Compound I-57, (R)-3-methylpyrrolidin-3-yl ((S)-1-(3-(2-cyclopropoxypyridin-3-yl)pyrazolo[1,5-a]pyrimidin-5-yl)pyrrolidin-3-yl)carbamate]	> 1500 nM	C (C: 0.076-0.15)	–
O=C1C[C@H](OC(=O)N2CCN(c3ccn4ncc(-c5cccnc5NC5CCC5)c4n3)CC2)CN1 [Compound I-46, [(3S)-5-oxopyrrolidin-3-yl]4-[3-[2-(cyclobutylamino)-3-pyridyl]pyrazolo[1,5-a]pyrimidin-5-yl]piperazine-1-carboxylate]	> 1500 nM	E (E: >1.00)	–
CC(=O)N1CC(Oc2ncccc2-c2cnn3ccc(N4CCN(C(=O)O[C@@H]5CNC(=O)C5)CC4)nc23)C1 [Compound I-59, (S)-5-oxopyrrolidin-3-yl 4-(3-(2-((1-acetylazetidin-3-yl)oxy)pyridin-3-yl)pyrazolo[1,5-a]pyrimidin-5-yl)piperazine-1-carboxylate]	–	A (A: ≤0.015)	> 1500 nM
O=C1C[C@H](OC(=O)N2CCN(c3ccn4ncc(-c5cccnc5OC5CC5)c4n3)CC2)CN1 [Compound I-11, [(3S)-5-Oxopyrrolidin-3-yl]-4-[3-[2-(cyclopropoxy)-3-pyridyl]pyrazolo[1,5-a]pyrimidin-5-yl]piperazine-1-carboxylate hydrochloric acid]	–	A (A: ≤0.015)	> 1500 nM
O=C(O[C@H]1CO[C@H]2OCC[C@H]21)N1CCN(c2ccn3ncc(-c4cnccn4)c3n2)CC1 [Compound I-66, [(3aS,4R,6aR)-2,3,3a, 4,5,6a-hexahydrofuro[2,3-b]furan-4-yl]-4-(3-pyrazin-2-ylpyrazolo[1,5-a]pyrimidin-5-yl)piperazine-1-carboxylate]	> 1500 nM	D (D: 0.16-1.00)	–
O=C1C[C@@H](OC(=O)N2CCN(c3ccn4ncc(-c5cccnc5OC5CC5)c4n3)CC2)CN1 [Compound I-10, [(3R)-5-Oxopyrrolidin-3-yl]-4-[3-[2-(cyclopropoxy)-3-pyridyl]pyrazolo[1,5-a]pyrimidin-5-yl]piperazine-1-carboxylate]	–	A (A: ≤0.015)	> 1500 nM
CC(C)Oc1ncccc1-c1cnn2ccc(N3CCN(C(=O)O[C@@]4(C)CCNC4)CC3)nc12 [Compound I-21, [(3S)-3-Methylpyrrolidin-3-yl]4-[3-(2-isopropoxy-3-pyridyl)pyrazolo[1,5-a]pyrimidin-5-yl]piperazine-1-carboxylate]	> 1500 nM	B (B: 0.016-0.075)	–
CN1CC[C@@](C)(OC(=O)N2CCN(c3ccn4ncc(-c5cccnc5OC5CC5)c4n3)CC2)C1 [Compound I-50, [(3R)-1,3-dimethylpyrrolidin-3-yl]-4-[3-[2-(cyclopropoxy)-3-pyridyl]pyrazolo[1,5-a]pyrimidin-5-yl]piperazine-1-carboxylate]	–	A (A: ≤0.015)	> 1500 nM
CN1C[C@@H](OC(=O)N2CCN(c3nc4c(-c5cccnc5OC5CC5)cnn4cc3F)CC2)CC1=O [Compound I-109, [(3S)-1-methyl-5-oxo-pyrrolidin-3-yl]4-[3-[2-(cyclopropoxy)-3-pyridyl]-6-fluoro-pyrazolo[1,5-a]pyrimidin-5-yl]piperazine-1-carboxylate]	–	A (A: ≤0.015)	> 1500 nM
CN1C[C@@H](OC(=O)N2CCN(c3ccn4ncc(-c5cccnc5OC5CC5)c4n3)CC2)CC1=O [Compound I-34]	–	A (A: ≤0.015)	> 1500 nM
CC(C)(C)OC(=O)N1CCC(N2C[C@@H](OC(=O)N3CCN(c4ccn5ncc(-c6cccnc6OC6CC6)c5n4)CC3)CC2=O)CC1 [Compound I-30, [(3S)-1-(1-tert-Butoxycarbonyl-4-piperidyl)-5-oxo-pyrrolidin-3-yl]4-[3-[2-(cyclopropoxy)-3-pyridyl]pyrazolo[1,5-a]pyrimidin-5-yl]piperazine-1-carboxylate]	–	A (A: ≤0.015)	> 1500 nM
COC(=O)N1CC(Oc2ncccc2-c2cnn3ccc(N4CCN(C(=O)O[C@@H]5CC(=O)N(CCO)C5)CC4)nc23)C1 [Compound I-84, [(3R)-1-(2-hydroxyethyl)-5-oxo-pyrrolidin-3-yl]4-[3-[2-(1-methoxycarbonylazetidin-3-yl)oxy-3-pyridyl]pyrazolo[1,5-a]pyrimidin-5-yl]piperazine-1-carboxylate]	–	B (B: 0.016-0.075)	> 1500 nM
CNCCN1C[C@@H](OC(=O)N2CCN(c3ccn4ncc(-c5cccnc5OC5CC5)c4n3)CC2)CC1=O [Compound I-36, (S)-1-(2-(methylamino)ethyl)-5-(oxopyrrolidin-3-yl)-4-(3-(2-cyclopropoxypyridin-3-yl)pyrazolo[1,5-a]pyrimidin-5-yl)piperazine-1-carboxylate]	–	A (A: ≤0.015)	> 1500 nM
COC(=O)N1CC(Oc2ncccc2-c2cnn3ccc(N4CCN(C(=O)O[C@@H]5CC(=O)N(C)C5)CC4)nc23)C1 [Compound I-83, [(3R)-1-methyl-5-oxo-pyrrolidin-3-yl]4-[3-[2-(1-methoxycarbonylazetidin-3-yl)oxy-3-pyridyl]pyrazolo[1,5-a]pyrimidin-5-yl]piperazine-1-carboxylate]	–	A (A: ≤0.015)	> 1500 nM
COC(=O)N1CC(Oc2ncccc2-c2cnn3ccc(N4CCN(C(=O)O[C@@H]5CNC(=O)C5)CC4)nc23)C1 [Compound I-58, [(3S)-5-oxopyrrolidin-3-yl]-4-[3-[2-(1-methoxycarbonylazetidin-3-yl)oxy-3-pyridyl]pyrazolo[1,5-a]pyrimidin-5-yl]piperazine-1-carboxylate]	–	A (A: ≤0.015)	> 1500 nM
COCCN1C[C@@H](OC(=O)N2CCN(c3ccn4ncc(-c5cccnc5OC5CC5)c4n3)CC2)CC1=O [Compound I-115, [(3S)-1-(2-methoxyethyl)-5-oxo-pyrrolidin-3-yl]-4-[3-[2-(cyclopropoxy)-3pyridyl]pyrazolo[1,5-a]pyrimidin-5-yl]piperazine-1-carboxylate]	–	A (A: ≤0.015)	> 1500 nM
CC(=O)N1CC(Oc2ncccc2-c2cnn3ccc(NCCN(C)C(=O)OC(C)(C)C)nc23)C1 [Compound I-63, Tert-butyl (2-((3-(2-((1-acetylazetidin-3-yl)oxy)pyridin-3-yl)pyrazolo[1,5-a]pyrimidin-5-yl)amino)ethyl)(methyl)carbamate]	–	A (A: ≤0.015)	> 1500 nM
O=C1C[C@H](OC(=O)N2CCN(c3ccn4ncc(-c5cccnc5OC5CC5)c4n3)CC2)CN1CCO [Compound I-38, [(3S)-1-(2-Hydroxyethyl)-5-oxo-pyrrolidin-3-yl]-4-[3-[2-(cyclopropoxy)-3-pyridyl]pyrazolo[1,5-a]pyrimidin-5-yl]piperazine-1-carboxylate]	–	A (A: ≤0.015)	> 1500 nM
[2H]C1([2H])N(C(=O)O[C@@H]2CNC(=O)C2)C([2H])([2H])C([2H])([2H])N(c2ccn3ncc(-c4cccnc4OC4CC4)c3n2)C1([2H])[2H] [Compound I-72, [(3S)-5-oxopyrrolidin-3-yl]4-[3-[2-(cyclopropoxy)-3-pyridyl]pyrazolo[1,5-a]pyrimidin-5-yl]-2,2,3,3,5,5,6,6-octadeuterio-piperazine-1-carboxylate]	–	A (A: ≤0.015)	> 1500 nM
COC(=O)N1CC(Oc2ncccc2-c2cnn3ccc(NCCN(C)C(=O)OC(C)(C)C)nc23)C1 [Compound I-64]	–	A (A: ≤0.015)	> 1500 nM
